Test results: publication PMC5218480 (PLoS ONE, 2017)

Tested on: MV-4-11 cells
Experiment: Gene expression microarray analysis (Affymetrix PrimeView) and GSEA
Assay type: cell-based, human
Parameters: RFU PODN (11730768_x_at) / Fold change /veh PODN (11730768_x_at) / RFU LINC00158 (11744669_a_at) / Fold change /veh LINC00158 (11744669_a_at) / RFU DUSP10 (11751237_a_at) / Fold change /veh DUSP10 (11751237_a_at) / RFU ID3 (11757404_x_at) / Fold change /veh ID3 (11757404_x_at) / RFU PLEKHG5 (11737974_s_at) / Fold change /veh PLEKHG5 (11737974_s_at) / RFU LRRC4B (11730491_at) / Fold change /veh LRRC4B (11730491_at) / RFU GIMAP4 (11747438_a_at) / Fold change /veh GIMAP4 (11747438_a_at) / RFU KRT8 (11758183_x_at) / Fold change /veh KRT8 (11758183_x_at) / RFU CNN1 (11734310_a_at) / Fold change /veh CNN1 (11734310_a_at) / RFU VPS37D (11726825_at) / Fold change /veh VPS37D (11726825_at) / RFU C10orf10 (11716522_x_at) / Fold change /veh C10orf10 (11716522_x_at) / RFU KIR2DL2 /// KIR2DL4 /// KIR2DL5A /// KIR2DL5B /// KIR2DS1 /// KIR2DS2 /// KIR2DS3 /// KIR2DS4 /// KIR3DL3 /// KIR3DL3 /// KIR3DS1 (11738374_at) / Fold change /veh KIR2DL2 /// KIR2DL4 /// KIR2DL5A /// KIR2DL5B /// KIR2DS1 /// KIR2DS2 /// KIR2DS3 /// KIR2DS4 /// KIR3DL3 /// KIR3DL3 /// KIR3DS1 (11738374_at) / RFU C1QL1 (11718748_at) / Fold change /veh C1QL1 (11718748_at) / RFU TMPRSS4 (11747572_a_at) / Fold change /veh TMPRSS4 (11747572_a_at) / RFU HAMP (11756126_x_at) / Fold change /veh HAMP (11756126_x_at) / RFU RNFT2 (11725882_a_at) / Fold change /veh RNFT2 (11725882_a_at) / RFU NR4A2 (11747474_a_at) / Fold change /veh NR4A2 (11747474_a_at) / RFU ABCC12 (11746883_a_at) / Fold change /veh ABCC12 (11746883_a_at) / RFU TMEM136 (11760407_x_at) / Fold change /veh TMEM136 (11760407_x_at) / RFU CLDN22 /// WWC2 (11732394_at) / Fold change /veh CLDN22 /// WWC2 (11732394_at) / RFU HLA-DPB1 (11760878_x_at) / Fold change /veh HLA-DPB1 (11760878_x_at) / RFU SPINT1 (11716480_a_at) / Fold change /veh SPINT1 (11716480_a_at) / RFU GAP43 (11754022_s_at) / Fold change /veh GAP43 (11754022_s_at) / RFU A4GNT (11735810_at) / Fold change /veh A4GNT (11735810_at) / RFU PRB3 (11715151_x_at) / Fold change /veh PRB3 (11715151_x_at) / RFU TUBB4B (11761932_at) / Fold change /veh TUBB4B (11761932_at) / RFU CAPN14 (11732068_a_at) / Fold change /veh CAPN14 (11732068_a_at) / RFU TMCC2 (11721928_a_at) / Fold change /veh TMCC2 (11721928_a_at) / RFU IRGQ (11745062_a_at) / Fold change /veh IRGQ (11745062_a_at) / RFU FAM174B (11720279_a_at) / Fold change /veh FAM174B (11720279_a_at) / RFU TMPRSS4 (11748680_a_at) / Fold change /veh TMPRSS4 (11748680_a_at) / RFU FAM212B (11763350_a_at) / Fold change /veh FAM212B (11763350_a_at) / RFU PLEKHG5 (11743358_a_at) / Fold change /veh PLEKHG5 (11743358_a_at) / RFU ZSCAN30 (11745921_a_at) / Fold change /veh ZSCAN30 (11745921_a_at) / RFU CMKLR1 (11741424_a_at) / Fold change /veh CMKLR1 (11741424_a_at) / RFU LOC101060620 /// MAPK8IP1 (11723275_at) / Fold change /veh LOC101060620 /// MAPK8IP1 (11723275_at) / RFU SPTSSB (11747773_x_at) / Fold change /veh SPTSSB (11747773_x_at) / RFU PRSS12 (11739890_at) / Fold change /veh PRSS12 (11739890_at) / RFU BIN1 (11741810_x_at) / Fold change /veh BIN1 (11741810_x_at) / RFU WNT11 (11732464_a_at) / Fold change /veh WNT11 (11732464_a_at) / RFU C10orf10 (11716521_a_at) / Fold change /veh C10orf10 (11716521_a_at) / RFU C5orf56 (11738089_at) / Fold change /veh C5orf56 (11738089_at) / RFU CYB561 (11721691_x_at) / Fold change /veh CYB561 (11721691_x_at) / RFU ANKRD19P (11752326_a_at) / Fold change /veh ANKRD19P (11752326_a_at) / RFU OR2T12 /// OR2T33 /// OR2T8 (11738714_s_at) / Fold change /veh OR2T12 /// OR2T33 /// OR2T8 (11738714_s_at) / RFU VCAN (11748164_a_at) / Fold change /veh VCAN (11748164_a_at) / RFU JSRP1 (11732532_at) / Fold change /veh JSRP1 (11732532_at) / RFU KRTAP10-11 (11738290_x_at) / Fold change /veh KRTAP10-11 (11738290_x_at) / RFU MYO3A (11730013_a_at) / Fold change /veh MYO3A (11730013_a_at) / RFU EBF3 (11725865_a_at) / Fold change /veh EBF3 (11725865_a_at) / RFU CAMK2N1 (11719241_x_at) / Fold change /veh CAMK2N1 (11719241_x_at) / RFU C5orf56 (11738088_a_at) / Fold change /veh C5orf56 (11738088_a_at) / RFU OLFML3 (11715873_a_at) / Fold change /veh OLFML3 (11715873_a_at) / RFU LOC100653217 /// NTM (11731650_a_at) / Fold change /veh LOC100653217 /// NTM (11731650_a_at) / RFU MAPK11 (11762145_a_at) / Fold change /veh MAPK11 (11762145_a_at) / RFU FIZ1 (11724087_x_at) / Fold change /veh FIZ1 (11724087_x_at) / RFU OASL (11726364_x_at) / Fold change /veh OASL (11726364_x_at) / RFU SOX15 (11748057_x_at) / Fold change /veh SOX15 (11748057_x_at) / RFU CD79A (11719716_a_at) / Fold change /veh CD79A (11719716_a_at) / RFU HIST1H1D (11736915_at) / Fold change /veh HIST1H1D (11736915_at) / RFU CASKIN2 (11723855_a_at) / Fold change /veh CASKIN2 (11723855_a_at) / RFU LOC730098 (11760151_x_at) / Fold change /veh LOC730098 (11760151_x_at) / RFU OR4N2 (11742367_at) / Fold change /veh OR4N2 (11742367_at) / RFU PRRT2 (11749266_a_at) / Fold change /veh PRRT2 (11749266_a_at) / RFU SNX32 (11753110_a_at) / Fold change /veh SNX32 (11753110_a_at) / RFU CDHR5 (11726645_a_at) / Fold change /veh CDHR5 (11726645_a_at) / RFU RCAN1 (11760418_a_at) / Fold change /veh RCAN1 (11760418_a_at) / RFU FAM167A (11723789_a_at) / Fold change /veh FAM167A (11723789_a_at) / RFU FAM26E (11764081_at) / Fold change /veh FAM26E (11764081_at) / RFU ISYNA1 (11749810_s_at) / Fold change /veh ISYNA1 (11749810_s_at) / RFU ACY1 (11761880_at) / Fold change /veh ACY1 (11761880_at) / RFU 11764098_at / Fold change /veh 11764098_at / RFU SAMD14 (11745864_x_at) / Fold change /veh SAMD14 (11745864_x_at) / RFU NPB (11741838_a_at) / Fold change /veh NPB (11741838_a_at) / RFU TMPRSS6 (11731388_a_at) / Fold change /veh TMPRSS6 (11731388_a_at) / RFU KRTAP10-2 (11738614_at) / Fold change /veh KRTAP10-2 (11738614_at) / RFU ARHGAP8 /// PRR5-ARHGAP8 (11727945_x_at) / Fold change /veh ARHGAP8 /// PRR5-ARHGAP8 (11727945_x_at) / RFU KRTAP5-7 /// NADSYN1 (11734609_at) / Fold change /veh KRTAP5-7 /// NADSYN1 (11734609_at) / RFU RASL12 (11751679_a_at) / Fold change /veh RASL12 (11751679_a_at) / RFU CDKN2B (11736163_a_at) / Fold change /veh CDKN2B (11736163_a_at) / RFU PRF1 (11729649_at) / Fold change /veh PRF1 (11729649_at) / RFU, ZNF638 /// ZNF638-IT1 / Fold change vs veh, ZNF638 /// ZNF638-IT1 / RFU, PANK3 / Fold change vs veh, PANK3 / RFU, SH3YL1 / Fold change vs veh, SH3YL1 / RFU, ZEB2 / Fold change vs veh, ZEB2 / RFU, NRIP1 / Fold change vs veh, NRIP1 / RFU, PTTG1IP / Fold change vs veh, PTTG1IP / RFU, CAPN2 / Fold change vs veh, CAPN2 / RFU, MED14 / Fold change vs veh, MED14 / RFU, SNORA58 / Fold change vs veh, SNORA58 / RFU, C1orf63 / Fold change vs veh, C1orf63 / RFU, LRRFIP1 / Fold change vs veh, LRRFIP1 / RFU, NDUFAF7 / Fold change vs veh, NDUFAF7 / RFU, SLC12A2 / Fold change vs veh, SLC12A2 / RFU, IBTK / Fold change vs veh, IBTK / RFU, ESF1 / Fold change vs veh, ESF1 / Fold change vs veh, TMEM50B / RFU, TAOK1 / Fold change vs veh, TAOK1 / RFU, ACBD3 / Fold change vs veh, ACBD3 / RFU, TMA16 / Fold change vs veh, TMA16 / RFU, RWDD3 / Fold change vs veh, RWDD3 / RFU, BCAT1 / Fold change vs veh, BCAT1 / RFU, EDEM3 / Fold change vs veh, EDEM3 / RFU, TMEM33 / Fold change vs veh, TMEM33 / RFU, WDR75 / Fold change vs veh, WDR75 / RFU, AHCTF1 / Fold change vs veh, AHCTF1 / RFU, TFRC / Fold change vs veh, TFRC / RFU, ZDHHC17 / Fold change vs veh, ZDHHC17 / RFU, NOM1 / Fold change vs veh, NOM1 / RFU, ARL8B / Fold change vs veh, ARL8B / RFU, ZBTB11 / Fold change vs veh, ZBTB11 / RFU, TAMM41 / Fold change vs veh, TAMM41 / RFU, KIAA1704 /// LOC100996395 / Fold change vs veh, KIAA1704 /// LOC100996395 / RFU, ING1 / Fold change vs veh, ING1 / RFU, TRMT61B / Fold change vs veh, TRMT61B / RFU, FUBP3 / Fold change vs veh, FUBP3 / RFU, TP53 / Fold change vs veh, TP53 / RFU, TNKS2 / Fold change vs veh, TNKS2 / RFU, ZFP14 / Fold change vs veh, ZFP14 / RFU, ACTR2 / Fold change vs veh, ACTR2 / RFU, PPP3R1 / Fold change vs veh, PPP3R1 / RFU, PIK3R1 / Fold change vs veh, PIK3R1 / RFU, HNRNPA1 / Fold change vs veh, HNRNPA1 / RFU, RNF170 / Fold change vs veh, RNF170 / RFU, ZNF28 / Fold change vs veh, ZNF28 / RFU, RNGTT / Fold change vs veh, RNGTT / RFU, OGT / Fold change vs veh, OGT / RFU, BRD1 / Fold change vs veh, BRD1 / RFU, MARS / Fold change vs veh, MARS / RFU, ZNF655 / Fold change vs veh, ZNF655 / RFU, FAHD1 / Fold change vs veh, FAHD1 / RFU, BDP1 / Fold change vs veh, BDP1 / RFU, LRRCC1 / Fold change vs veh, LRRCC1 / RFU, ARID1A / Fold change vs veh, ARID1A / RFU, ZNF146 / Fold change vs veh, ZNF146 / RFU, ZNF330 / Fold change vs veh, ZNF330 / RFU, GPN3 / Fold change vs veh, GPN3 / RFU, C9orf123 / Fold change vs veh, C9orf123 / RFU, N4BP2L2 / Fold change vs veh, N4BP2L2 / RFU, ARFIP1 / Fold change vs veh, ARFIP1 / RFU, FAM179B / Fold change vs veh, FAM179B / RFU, BCL10 / Fold change vs veh, BCL10 / RFU, UHRF1BP1L / Fold change vs veh, UHRF1BP1L / RFU, BET1 / Fold change vs veh, BET1 / RFU, CNOT2 / Fold change vs veh, CNOT2 / RFU, ZNF268 / Fold change vs veh, ZNF268 / Fold change vs veh, ZNF507 / RFU, DGCR2 / Fold change vs veh, DGCR2 / RFU, WDSUB1 / Fold change vs veh, WDSUB1 / Fold change vs veh, HSP90B1 /// MIR3652 / RFU, ADSS / Fold change vs veh, ADSS / RFU, GK / Fold change vs veh, GK / RFU, ZNF148 / Fold change vs veh, ZNF148 / RFU, TAF9 / Fold change vs veh, TAF9 / RFU, SLC1A5 / Fold change vs veh, SLC1A5 / RFU, SLMO2 / Fold change vs veh, SLMO2 / RFU, ABCC4 / Fold change vs veh, ABCC4 / RFU, LOC101060439 /// RAP1B / Fold change vs veh, LOC101060439 /// RAP1B / RFU, RFX7 / Fold change vs veh, RFX7 / RFU, GTPBP10 / Fold change vs veh, GTPBP10 / RFU, CNEP1R1 / Fold change vs veh, CNEP1R1 / RFU, BIVM-ERCC5 /// ERCC5 / Fold change vs veh, BIVM-ERCC5 /// ERCC5 / RFU, ILF3 / Fold change vs veh, ILF3 / RFU 11762660_at / Fold change /veh 11762660_at / RFU VCAN (11757783_s_at) / Fold change /veh VCAN (11757783_s_at) / RFU DDX43 (11728927_at) / Fold change /veh DDX43 (11728927_at) / RFU KRT8 (11758188_x_at) / Fold change /veh KRT8 (11758188_x_at) / RFU NKD1 (11759106_at) / Fold change /veh NKD1 (11759106_at) / RFU SRD5A1 (11742802_a_at) / Fold change /veh SRD5A1 (11742802_a_at) / RFU TPSAB1 /// TPSB2 (11721975_s_at) / Fold change /veh TPSAB1 /// TPSB2 (11721975_s_at) / RFU GSTM3 (11746129_a_at) / Fold change /veh GSTM3 (11746129_a_at) / RFU IL23R (11737362_x_at) / Fold change /veh IL23R (11737362_x_at) / RFU TMEM51 (11727254_a_at) / Fold change /veh TMEM51 (11727254_a_at) / RFU PIWIL2 (11732686_x_at) / Fold change /veh PIWIL2 (11732686_x_at) / RFU ORM1 (11744905_x_at) / Fold change /veh ORM1 (11744905_x_at) / RFU CCDC152 (11743942_at) / Fold change /veh CCDC152 (11743942_at) / RFU ECM1 (11717891_a_at) / Fold change /veh ECM1 (11717891_a_at) / RFU IL23R (11748794_a_at) / Fold change /veh IL23R (11748794_a_at) / RFU TNFAIP8L3 (11732012_x_at) / Fold change /veh TNFAIP8L3 (11732012_x_at) / RFU MBOAT4 (11741988_at) / Fold change /veh MBOAT4 (11741988_at) / RFU 11764193_at / Fold change /veh 11764193_at / RFU TMEM53 (11763286_at) / Fold change /veh TMEM53 (11763286_at) / RFU MAGEB2 (11727129_at) / Fold change /veh MAGEB2 (11727129_at) / RFU TMEM200A (11744735_a_at) / Fold change /veh TMEM200A (11744735_a_at) / RFU CCDC152 (11751479_a_at) / Fold change /veh CCDC152 (11751479_a_at) / RFU FAM211A (11726209_a_at) / Fold change /veh FAM211A (11726209_a_at) / RFU RGS16 (11746705_a_at) / Fold change /veh RGS16 (11746705_a_at) / RFU VCAN (11755009_s_at) / Fold change /veh VCAN (11755009_s_at) / RFU RHOB (11743442_s_at) / Fold change /veh RHOB (11743442_s_at) / RFU RGS16 (11720943_a_at) / Fold change /veh RGS16 (11720943_a_at) / RFU RGS16 (11720944_at) / Fold change /veh RGS16 (11720944_at) / RFU, VPS4B / Fold change vs veh, VPS4B / RFU, CREB1 / Fold change vs veh, CREB1 / RFU, DNAJC13 / Fold change vs veh, DNAJC13 / RFU, GNAQ / Fold change vs veh, GNAQ / RFU, CDK5R1 / Fold change vs veh, CDK5R1 / RFU, ZRANB3 / Fold change vs veh, ZRANB3 / RFU, CUL4A / Fold change vs veh, CUL4A / RFU, CCNY / Fold change vs veh, CCNY / RFU, UFL1 / Fold change vs veh, UFL1 / RFU, COG3 / Fold change vs veh, COG3 / RFU, DIAPH2 / Fold change vs veh, DIAPH2 / RFU, SKA2 / Fold change vs veh, SKA2 / RFU, AFF3 / Fold change vs veh, AFF3 / RFU, LMF1 / Fold change vs veh, LMF1 / RFU, IPO11 / Fold change vs veh, IPO11 / RFU, DFFB / Fold change vs veh, DFFB / RFU, FOXP1 / Fold change vs veh, FOXP1 / RFU, CARD8 / Fold change vs veh, CARD8 / RFU, STRN3 / Fold change vs veh, STRN3 / RFU, ADK / Fold change vs veh, ADK / RFU, RASSF2 / Fold change vs veh, RASSF2 / RFU, WIPF1 / Fold change vs veh, WIPF1 / RFU, LARP1B / Fold change vs veh, LARP1B / RFU, RASA1 / Fold change vs veh, RASA1 / RFU, RB1 / Fold change vs veh, RB1 / RFU, PPFIA1 / Fold change vs veh, PPFIA1 / RFU, MAT2A / Fold change vs veh, MAT2A / RFU, CCT5 / Fold change vs veh, CCT5 / RFU, WDR92 / Fold change vs veh, WDR92 / RFU, CUX1 / Fold change vs veh, CUX1 / RFU, TTC7A / Fold change vs veh, TTC7A / RFU, TMEM135 / Fold change vs veh, TMEM135 / RFU, DEPTOR / Fold change vs veh, DEPTOR / RFU, CPM / Fold change vs veh, CPM / RFU, DNAJB6 / Fold change vs veh, DNAJB6 / RFU, CACNA2D3 / Fold change vs veh, CACNA2D3 / RFU, DTX4 / Fold change vs veh, DTX4 / RFU, TFCP2 / Fold change vs veh, TFCP2 / RFU, GMCL1 /// GMCL1P1 / Fold change vs veh, GMCL1 /// GMCL1P1 / RFU, AEBP2 / Fold change vs veh, AEBP2 / RFU, SNHG1 /// SNORD22 /// SNORD25 /// SNORD26 /// SNORD27 /// SNORD28 /// SNORD29 /// SNORD31 / Fold change vs veh, SNHG1 /// SNORD22 /// SNORD25 /// SNORD26 /// SNORD27 /// SNORD28 /// SNORD29 /// SNORD31 / Fold change (Aza/veh), C12orf56 (ProbeSet 11735607_a_at) / Fold change (ACY-1035/veh), C12orf56 (ProbeSet 11735607_a_at) / Fold change (Aza/veh), FGFR1OP (ProbeSet 11751329_s_at) / Fold change (ACY-1035/veh), FGFR1OP (ProbeSet 11751329_s_at) / Fold change (Aza/veh), VPS36 (ProbeSet 11739960_a_at) / Fold change (ACY-1035/veh), VPS36 (ProbeSet 11739960_a_at) / RFU SYPL1 (11715823_x_at) / Fold change /veh SYPL1 (11715823_x_at) / RFU IGFBP7 (11715501_s_at) / Fold change /veh IGFBP7 (11715501_s_at) / RFU REEP3 (11722064_at) / Fold change /veh REEP3 (11722064_at) / RFU IGLL1 (11728026_x_at) / Fold change /veh IGLL1 (11728026_x_at): dose or concentration left out as unconfirmed
Details: ProbeSet 11757113_a_at; LIST D

SMILES: Nc1ccc(-c2cccs2)cc1NC(=O)c1ccc2c(c1)cc(C1CC1)n2CCN1CCOCC1 [ACY-1035]
- Fold change vs veh, SNHG1 /// SNORD22 /// SNORD25 /// SNORD26 /// SNORD27 /// SNORD28 /// SNORD29 /// SNORD31: 0.87
